Legend:
Rattus norvegicus [1] = species: Rattus norvegicus; assay: Percent intrinsic activity was measured in rat aorta; assay type: functional
Rattus norvegicus [2] = species: Rattus norvegicus; assay: Negative logarithm of the molar concentration of compound required to relax rat aorta precontracted with 30 mM KCl by 50%; assay type: functional

Compound | IA (Rattus norvegicus [1]) | EC50 (Rattus norvegicus [2])
CC(N/C(=N\C#N)Nc1ccncc1)C(C)(C)C (stereo not given) [PINACIDIL ANHYDROUS] | 91.9% | 724 nM
C/N=C(/NC#N)C1=CC(C)(C)Oc2ccc(C#N)cc21 | 73% | 339 nM
C/N=C(/S)C1=CC(C)(C)Oc2ccc(C#N)cc21 | 89% | 
CC(C)(C)/N=C(/NC#N)Nc1cccnc1 | 88% | 91.2 nM
CNC(=O)C1=CC(C)(C)Oc2ccc(C#N)cc21 | 66.6% | 263 nM
CC1(C)Oc2ccc(C#N)cc2[C@@H](N2CCCC2=O)[C@@H]1O [CROMAKALIM] | 74.7% | 

— ChEMBL document CHEMBL1127213, “Design of potent K+ channel openers by pharmacophore model” (Bioorg Med Chem Lett, 1993)
